Literature values in patent US20140220152A1, “Compositions and Methods for Detecting, Treating, or Preventing Reductive Stress” (University of Utah Research Foundation, priority 2007, published 2014).

Legend:
[1] = target: mammalian glucose-6-phosphate dehydrogenase (G6PDH) (Homo sapiens, UniProt P11413)
[2] = humans taking repeated doses of 250 mg disulfuram daily
[3] = rodents

Sequence of mammalian glucose-6-phosphate dehydrogenase (G6PDH) (P11413 whole entry): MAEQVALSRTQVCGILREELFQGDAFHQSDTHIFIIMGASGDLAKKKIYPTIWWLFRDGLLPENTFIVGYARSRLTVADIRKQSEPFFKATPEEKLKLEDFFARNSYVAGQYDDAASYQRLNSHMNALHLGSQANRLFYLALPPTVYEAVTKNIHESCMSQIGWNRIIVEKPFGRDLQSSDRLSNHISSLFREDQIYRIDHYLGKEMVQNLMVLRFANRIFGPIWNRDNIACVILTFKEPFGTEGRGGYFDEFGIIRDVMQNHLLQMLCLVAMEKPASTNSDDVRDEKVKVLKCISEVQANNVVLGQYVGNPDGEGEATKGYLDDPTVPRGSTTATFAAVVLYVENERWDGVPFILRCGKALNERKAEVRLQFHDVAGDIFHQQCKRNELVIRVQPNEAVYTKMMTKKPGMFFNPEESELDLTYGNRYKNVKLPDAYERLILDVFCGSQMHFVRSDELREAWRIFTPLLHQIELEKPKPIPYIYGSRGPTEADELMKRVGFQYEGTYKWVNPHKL

Row | SMILES | inhibition of mammalian G6PDH [1] | Steady-state serum levels [2] | LD50 [3]
1 | C[C@]12CC[C@H](O)CC1=CC[C@@H]1[C@@H]2CC[C@]2(C)C(=O)CC[C@@H]12 [DHEA, Dehydroepiandrosterone] | potent non-competitive inhibitor | – | –
2 | CCN(CC)C(=S)SSC(=S)N(CC)CC [Disulfuram, tetraalkylthiuram disulfide] | – | approximately 1.3 μM | 8.6 g/kg
3 | C[C@]12CC[C@H](O)C[C@@H]1CC[C@@H]1[C@@H]2CC[C@]2(C)C(=O)[C@H](Br)C[C@@H]12 [16α-bromoepiandrosterone] | more potent inhibitor of mammalian G6PDH than DHEA | – | –
